Source: patent US11629171B2, “Beta-hairpin peptidomimetics” (POLYPHOR AG, priority 2017, dated 2023)
In brackets after ≈: the same amount, converted by molar mass. Where a SMILES comes first, the peptide text is derived from it. Bridges are numbered along the chain shown (N, C = ends). Roman numbers before positions name the chains, in order. [ ]: non-standard residue; d: D form. aThr = C[C@H](O)[C@H](N)C(=O)O; Pen = CC(C)(S)[C@H](N)C(=O)O; Tle = CC(C)(C)[C@H](N)C(=O)O; dDab = NCC[C@@H](N)C(=O)O; Dab = NCC[C@H](N)C(=O)O; Abu = CC[C@H](N)C(=O)O; Dap = NC[C@H](N)C(=O)O

Assays:
[1] = system: Acinetobacter baumannii 872842; assay type: cell-based; conditions: 872842
Procedure, shortened: (§1)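 CLSI broth microdilution in cation-adjusted Mueller-Hinton II broth with 0.002% polysorbate 80 (final), inoculum appr. 10^6 CFU/mL, peptides in serial two-fold dilutions. MIC (μg/mL) is the lowest concentration without visible growth after 18-20 h at 35° C.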

[2] = system: Acinetobacter baumannii DSM 30008; assay type: cell-based; conditions: DSM 30008
Procedure, shortened: as §1

[3] = system: Enterobacter cloacae 848840; assay type: cell-based; conditions: 848840
Procedure, shortened: as §1

Escherichia coli 926415 = assay type: cell-based; conditions: 926415
Procedure, shortened: as §1

[4] = system: Escherichia coli ATCC 25922; assay type: cell-based; conditions: ATCC 25922
Procedure, shortened: as §1

[5] = system: Klebsiella pneumoniae 968733; assay type: cell-based; conditions: 968733
Procedure, shortened: as §1

[6] = system: Klebsiella pneumoniae SSI #3010; assay type: cell-based; conditions: SSI #3010
Procedure, shortened: as §1

[7] = system: Pseudomonas aeruginosa ATCC 27853; assay type: cell-based; conditions: ATCC 27853
Procedure, shortened: as §1

[8] = system: human red blood cells (hRBC); experiment: Hemolysis; assay type: cell-based; conditions: red cells of human, 1 h, 200
Procedure, shortened: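 Percent lysis of human red cells was derived from OD540 of the supernatant, referenced to 2% Triton X-100, after a 1 h, 37° C incubation of 20% (v/v) cells with 200 μg/mL peptide.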

male ICR mice = experiment: Tolerability in a mouse model (Maximum Tolerated Dose assay); assay type: in vivo; conditions: groups of 3
Description: The tolerability of the peptides was tested in a mouse model at Pharmacology Discovery Services Taiwan Ltd, Taipei, Taiwan. The peptides were administered subcutaneously (s.c.) at 30 mg/kg or 40 mg/kg, respectively; twice at a 12-hr interval, for assessment of possible adverse effects in the Maximum Tolerated Dose (MTD) assay in male ICR (Institute of Cancer Research) mice. The peptides were dissolved in 0.9% NaCl at the concentrations either of 6 or 8 mg/mL, respectively, based on the free base molecular weight. The pH values of dosing solutions were adjusted to 6.5-7.6 before s.c. administration. A dosing volume at 5 mL/kg and a concentration of 6 or 8 mg/mL, respectively, was applied. The fresh prepared stock solution were stored at 4° C. during the study. Male ICR mice weighing 23±3 g were provided by BioLasco Taiwan (under Charles River Laboratories Licensee). Animals were acclimated for 3 days prior to use and were confirmed to be in good health. The peptides were administered s.c. at 30 mg/kg or 40 mg/kg, respectively, twice at a 12-hr interval, to groups of 3 ICR male mice and observed for the presence of acute toxic symptoms (mortality, convulsions, tremors, muscle relaxation, sedation, etc.) and autonomic effects (diarrhea, salivation, lacrimation, vasodilation, piloerection, etc.) during the first 30 min. The peptides were administered again at a 12-hr (two total doses) interval, following the first dose. The animals were then observed again for the presence of acute toxic symptoms and autonomic effects during the first 30 min.

[9] = 2 × 40 mg/kg s.c. at a 12-hr interval
[10] = 2 × 30 mg/kg s.c. at a 12-hr interval

SMILES | MIC [1] [mg/L] | Acinetobacter baumannii DSM 30008 MIC [2] [mg/L] | MIC [3] [mg/L] | MIC (Escherichia coli 926415) [mg/L] | Escherichia coli ATCC 25922 MIC [4] [mg/L] | MIC [5] [mg/L] | Klebsiella pneumoniae SSI #3010 MIC [6] [mg/L] | Pseudomonas aeruginosa ATCC 27853 MIC [7] [mg/L] | Hemolysis at 200 μg/mL [8] [%] | Mortality and dose (male ICR mice; [9]) | MIC [2] [mg/L] | MIC [4] [mg/L] | MIC [6] [mg/L] | MIC [7] [mg/L] | Mortality and dose (male ICR mice; [10])
CC[C@@H]1NC(=O)[C@@H](CC(C)C)NC(=O)[C@H](CCN)NC(=O)[C@@H](NC(=O)[C@H](CCN)NC(=O)[C@@H](NC(=O)[C@H](CCN)NC(=O)CC[C@@H]2NC(=O)[C@H](CCN)NC(=O)[C@H](Cc3ccc(O)cc3)NC(=O)[C@@H](NC(=O)[C@@H](NC(C)=O)C(C)C)CSSC[C@@H](C(=O)N[C@@H](CO)C(N)=O)NC(=O)[C@H](C(C)C)NC(=O)[C@H](CO)NC(=O)[C@H](Cc3c[nH]c4ccccc34)NC(=O)[C@H](CO)NC(=O)[C@@H](CCN)NC2=O)[C@@H](C)O)CCNC(=O)[C@H]([C@@H](C)O)NC(=O)[C@H](CCN)NC(=O)[C@H](CCN)NC1=O [Ex. 332] (I: Ac-VCY[Dab]E[dDab]SWSVCS-NH2 / II: [Dab]T[Dab][Dab][Dab][dL][Abu][Dab][Dab]T; disulfide I:2-I:11; amide I:5-II:N; lactam II:4-II:C) | 0.25 (≈ 0.105 µM) | 0.0625 | 0.125 (≈ 0.0524 µM) | 0.25 (≈ 0.105 µM) | 0.03125 | 0.5 (≈ 0.21 µM) | 0.0625 | 0.25 | 2 | 0/3 died at 2 × 40 mg/kg |  |  |  |  | 
CC(=O)N[C@H](C(=O)N[C@H]1CSSC[C@@H](C(=O)N[C@H](C)C(=O)N[C@@H](CO)C(N)=O)NC(=O)[C@H](C(C)C)NC(=O)[C@H](CO)NC(=O)[C@H](Cc2c[nH]c3ccccc23)NC(=O)[C@H](CO)NC(=O)[C@@H](CCN)NC(=O)[C@H](CCC(=O)N[C@@H](CCN)C(=O)N[C@H](C(=O)N[C@@H](CN)C(=O)N[C@H]2CCNC(=O)[C@H]([C@@H](C)O)NC(=O)[C@H](CCN)NC(=O)[C@H](CCN)NC(=O)[C@H](CC(C)C)NC(=O)[C@@H](CC(C)C)NC(=O)[C@H](CCN)NC2=O)[C@@H](C)O)NC(=O)[C@H](CCN)NC(=O)[C@H](Cc2ccc(O)cc2)NC1=O)C(C)C [Ex. 370] (I: Ac-VCY[Dab]E[dDab]SWSVC[dA]S-NH2 / II: [Dab]T[Dap][Dab][Dab][dL]L[Dab][Dab]T; disulfide I:2-I:11; amide I:5-II:N; lactam II:4-II:C) | 0.5 (≈ 0.202 µM) | 0.0625 | 0.125 (≈ 0.0506 µM) | 0.5 (≈ 0.202 µM) | 0.0625 | 1 (≈ 0.405 µM) | 0.0625 | 0.125 | 2 | 0/3 died at 2 × 40 mg/kg |  |  |  |  | 
CC[C@@H]1NC(=O)[C@@H](CC(C)C)NC(=O)[C@H](CCN)NC(=O)[C@@H](NC(=O)[C@H](CN)NC(=O)[C@@H](NC(=O)[C@H](CCN)NC(=O)CC[C@@H]2NC(=O)[C@@H](NC(=O)[C@H](Cc3ccc(O)cc3)NC(=O)[C@@H](NC(=O)[C@@H](NC(C)=O)C(C)C)[C@@H](C)O)CSSC(C)(C)[C@@H](C(=O)N[C@H](C(=O)N[C@H](C(=O)N[C@H](C(N)=O)[C@@H](C)O)[C@@H](C)O)C(C)C)NC(=O)[C@H](Cc3c[nH]c4ccccc34)NC(=O)[C@H](CCN)NC(=O)[C@@H](CCN)NC2=O)[C@@H](C)O)CCNC(=O)[C@H]([C@@H](C)O)NC(=O)[C@H](CCN)NC(=O)[C@H](CCN)NC1=O [Ex. 266] (I: Ac-VTYCE[dDab][Dab]W[Pen]VTT-NH2 / II: [Dab]T[Dap][Dab][Dab][dL][Abu][Dab][Dab]T; disulfide I:4-I:9; amide I:5-II:N; lactam II:4-II:C) | 0.5 (≈ 0.205 µM) |  | 0.25 (≈ 0.102 µM) | 0.5 (≈ 0.205 µM) |  | 1 (≈ 0.41 µM) |  |  | 1 |  | 0.0625 (≈ 0.0256 µM) | 0.03125 (≈ 0.0128 µM) | 0.0625 (≈ 0.0256 µM) | 0.125 (≈ 0.0512 µM) | 0/3 died at 2 × 30 mg/kg
CC[C@@H]1NC(=O)[C@@H](CC(C)C)NC(=O)[C@H](CCN)NC(=O)[C@@H](NC(=O)[C@H](CN)NC(=O)[C@@H](NC(=O)[C@H](CCN)NC(=O)CC[C@@H]2NC(=O)[C@H](CCN)NC(=O)[C@H](Cc3ccc(O)cc3)NC(=O)[C@@H](NC(=O)[C@@H](NC(C)=O)C(C)C)CSSC[C@@H](C(=O)N[C@@H](CO)C(N)=O)NC(=O)[C@H]([C@@H](C)CC)NC(=O)[C@H](CO)NC(=O)[C@H](Cc3c[nH]c4ccccc34)NC(=O)[C@H](CCN)NC(=O)CNC2=O)[C@@H](C)O)CCNC(=O)[C@H]([C@@H](C)O)NC(=O)[C@H](CCN)NC(=O)[C@H](CCN)NC1=O [Ex. 299] (I: Ac-VCY[Dab]EG[Dab]WSICS-NH2 / II: [Dab]T[Dap][Dab][Dab][dL][Abu][Dab][Dab]T; disulfide I:2-I:11; amide I:5-II:N; lactam II:4-II:C) | 0.125 (≈ 0.0531 µM) | 0.0625 | 0.125 (≈ 0.0531 µM) | 0.25 (≈ 0.106 µM) | 0.0625 | 0.5 (≈ 0.212 µM) | 0.0625 | 0.25 | <1 | 0/3 died at 2 × 40 mg/kg |  |  |  |  | 
CC(=O)N[C@H](C(=O)N[C@H]1CSSC[C@@H](C(=O)N[C@@H](CO)C(N)=O)NC(=O)[C@H](C(C)(C)C)NC(=O)[C@H](CO)NC(=O)[C@H](Cc2c[nH]c3ccccc23)NC(=O)[C@H](CCN)NC(=O)[C@@H](CCN)NC(=O)[C@H](CCC(=O)N[C@@H](CCN)C(=O)N[C@H](C(=O)N[C@@H](CN)C(=O)N[C@H]2CCNC(=O)[C@H]([C@@H](C)O)NC(=O)[C@H](CCN)NC(=O)[C@H](CCN)NC(=O)[C@H]([C@@H](C)O)NC(=O)[C@@H](CC(C)C)NC(=O)[C@H](CCN)NC2=O)[C@@H](C)O)NC(=O)[C@H](CO)NC(=O)[C@H](Cc2ccc(O)cc2)NC1=O)C(C)C [Ex. 261] (I: Ac-VCYSE[dDab][Dab]WS[Tle]CS-NH2 / II: [Dab]T[Dap][Dab][Dab][dL]T[Dab][Dab]T; disulfide I:2-I:11; amide I:5-II:N; lactam II:4-II:C) | 0.0625 (≈ 0.026 µM) |  | 0.125 (≈ 0.0521 µM) | 0.125 (≈ 0.0521 µM) |  | 0.25 (≈ 0.104 µM) |  |  | 1 |  | 0.03125 (≈ 0.013 µM) | 0.03125 (≈ 0.013 µM) | 0.0625 (≈ 0.026 µM) | 0.125 (≈ 0.0521 µM) | 0/3 died at 2 × 30 mg/kg
CC(=O)N[C@H](C(=O)N[C@H]1CSSC[C@@H](C(=O)N[C@@H](CO)C(N)=O)NC(=O)[C@H](C(C)C)NC(=O)[C@H]([C@H](C)O)NC(=O)[C@H](Cc2c[nH]c3ccccc23)NC(=O)[C@H](CO)NC(=O)[C@@H](CCN)NC(=O)[C@H](CCC(=O)N[C@@H](CCN)C(=O)N[C@H](C(=O)N[C@@H](CN)C(=O)N[C@H]2CCNC(=O)[C@H]([C@@H](C)O)NC(=O)[C@H](CCN)NC(=O)[C@H](CCN)NC(=O)[C@H](CC(C)C)NC(=O)[C@@H](CC(C)C)NC(=O)[C@H](CCN)NC2=O)[C@@H](C)O)NC(=O)[C@H](CCN)NC(=O)[C@H](Cc2ccc(O)cc2)NC1=O)C(C)C [Ex. 306] (I: Ac-VCY[Dab]E[dDab]SW[aThr]VCS-NH2 / II: [Dab]T[Dap][Dab][Dab][dL]L[Dab][Dab]T; disulfide I:2-I:11; amide I:5-II:N; lactam II:4-II:C) | 0.0625 (≈ 0.0259 µM) | 0.0625 | 0.0625 (≈ 0.0259 µM) | 0.0625 (≈ 0.0259 µM) | 0.03125 | 0.125 (≈ 0.0518 µM) | 0.0625 | 0.0625 | <1 | 0/3 died at 2 × 40 mg/kg |  |  |  |  | 
